According to article PMC7036753, “Lipidated Analogs of the LL-37-Derived Peptide Fragment KR12—Structural Analysis, Surface-Active Properties and Antimicrobial Activity” (International Journal of Molecular Sciences, 2020):
≈ marks a conversion by molar mass, not a printed value. Peptide text beside a SMILES is read from it. * marks the point of attachment. Octanoyl = CCCCCCCC(=O)*; X1 = O=C(/C=C/c1ccccc1)*; Hexanoyl = CCCCCC(=O)*; Butyryl = CCCC(=O)*

Columns and labels:
[1] = system: E. faecium ATCC 700221; type: cell-based, Enterococcus faecium; settings: ATCC 700221, 18 h
Method: (§1) Examination of antimicrobial activity of the test compounds was conducted on reference strains of bacteria assigned to ESKAPE group of pathogens: Enterococcus faecium ATCC 700221, Klebsiella pneumoniae ATCC 700603, Acinetobacter baumannii ATCC BAA-1605, Pseudomonas aeruginosa ATCC 9027, Klebsiella aerogenes ATCC 13048 (formerly Enterobacter aerogenes) and reference strains of Staphylococcus aureus, namely: S. aureus ATCC 25923, S. aureus ATCC 6538, S. aureus ATCC 33591 (MRSA), S. aureus ATCC 9144 and S. aureus ATCC 12598. All the strains were stored at −80 °C in Roti®-Store cryo vials (Carl Roth GmbH, Karlsruhe, Germany) and before the tests were transferred into fresh Mueller-Hinton Medium (BioMaxima, Lublin, Poland) and incubated for 24 h at 37 °C. Subsequently, each bacterial inoculum was seeded on Mueller-Hinton Agar plates (BioMaxima) and incubated again for 24 h. The cultures prepared in this way were used in further antimicrobial assays and prepared as described above. The MIC values were determined by the broth microdilution method according to Clinical and Laboratory Standards Institute Protocol. For this purpose, initial inoculums of bacteria (0.5 × 10^5 colony forming unit (CFU)/mL) in Mueller–Hinton Broth were exposed to the ranging concentrations of compounds (0.5–256 µg/mL) and incubated for 18 h at 37 °C. The experiments were conducted on 96-well microtiter plates, with a final volume of 100 µL. Cell densities were adjusted spectrophotometrically (Multiskan™ GO Microplate Spectrophotometer, Thermo Scientific) at 600 nm. The MICs were taken as the lowest drug concentration at which a visible growth of microorganisms was inhibited. All experiments were conducted in triplicate and included positive (growth) and negative (sterility) controls.

[2] = system: K. pneumoniae ATCC 700603; type: cell-based, Klebsiella pneumoniae; settings: ATCC 700603, 18 h
Method: as §1

[3] = system: A. baumannii ATCC BAA-1605; type: cell-based, Acinetobacter baumannii; settings: ATCC BAA-1605, 18 h
Method: as §1

[4] = system: P. aeruginosa ATCC 9027; type: cell-based, Pseudomonas aeruginosa; settings: ATCC 9027, 18 h
Method: as §1

[5] = system: K. aerogenes ATCC 13048; type: cell-based, Klebsiella aerogenes; settings: ATCC 13048, 18 h
Method: as §1

[6] = system: S. aureus ATCC 12598; type: cell-based, Staphylococcus aureus; settings: ATCC 12598, 18 h
Method: as §1

[7] = system: S. aureus ATCC 25923; type: cell-based, Staphylococcus aureus; settings: ATCC 25923, 18 h
Method: as §1

[8] = system: S. aureus ATCC 33591 (MRSA); type: cell-based, Staphylococcus aureus; settings: ATCC 33591, 18 h
Method: as §1

[9] = system: S. aureus ATCC 6538; type: cell-based, Staphylococcus aureus; settings: ATCC 6538, 18 h
Method: as §1

[10] = system: S. aureus ATCC 9144; type: cell-based, Staphylococcus aureus; settings: ATCC 9144, 18 h
Method: as §1

[11] = system: S. aureus ATCC 12598 biofilm; type: cell-based, Staphylococcus aureus; settings: ATCC 12598, 24 h
Method: (§2) The MBECs values were determined according to the method reported previously. Briefly, 24-h cultures of S. aureus, namely: S. aureus ATCC 25923, S. aureus ATCC 6538, S. aureus ATCC 33591 (MRSA), S. aureus ATCC 9144 and S. aureus ATCC 12598 were diluted to a concentration of 0.5 × 10^7 CFU/mL and added to the test wells of polystyrene microdilution flat-bottom plates. After 24-h of incubation at 37 °C, the wells were rinsed three times with PBS to remove non-adherent cells. Subsequently, 100 μL of the test compounds over a concentration range 0.5–256 µg/mL were added to each well and incubated again for 24 h at 37 °C. After this period, 20 μL of the resazurin (7-hydroxy-3H-phenoxazin-3-one-10-oxide, 4 mg/mL) solution was added to each well. After 1 h of incubation, the MBECs were read out. The determined values were recorded as the lowest concentration at which the reduction of resazurin (from blue to pink) was lower or equal to 10 ± 0.5% as compared to the positive (100%) and negative (0%) controls. All experiments were performed in triplicate.

[12] = system: S. aureus ATCC 25923 biofilm; type: cell-based, Staphylococcus aureus; settings: ATCC 25923, 24 h
Method: as §2

[13] = system: S. aureus ATCC 33591 (MRSA) biofilm; type: cell-based, Staphylococcus aureus; settings: ATCC 33591, 24 h
Method: as §2

[14] = system: S. aureus ATCC 6538 biofilm; type: cell-based, Staphylococcus aureus; settings: ATCC 6538, 24 h
Method: as §2

[15] = system: S. aureus ATCC 9144 biofilm; type: cell-based, Staphylococcus aureus; settings: ATCC 9144, 24 h
Method: as §2

[16] = system: human keratinocytes (HaCaT); type: cell-based; settings: 24 h
Method: The cytotoxicity of test compounds (IC50) was evaluated for human keratinocytes (HaCaT, ATCC) using classic MTT assay on 96-well plates. In this assay, a colorimetric determination of the cell metabolic activity was carried out. Specifically, the color intensity reflects the number of live cells that can be measured spectrophotometrically. […] A day after plating 500 cells per well, a series of concentrations (0.5–500 μg/mL) of the test compounds were added. Dimethyl sulfoxide (DMSO) was used as a control in cells at a final concentration of 1.0% (v/v), which was related to the maximal concentration of the solvent compounds used in the experiment. After 24 h of incubation with test compounds, a medium containing 1 mg/mL of MTT was added up to a final concentration of 0.5 mg/mL and subsequently incubated at 37 °C for 4 h. Then, the medium was aspirated and the formazan product was solubilized with DMSO. The background absorbance at 630 nm was subtracted from that at 570 nm for each well (Epoch, BioTek Instruments, Winooski, VT, USA). Six replicates were conducted for each concentration. All experiments were repeated at least twice and the resulting IC50 values were calculated with a GraFit 7 software (v. 7.0, Erithacus, Berkley, CA, USA).

[17] = system: ESKAPE strains; type: cell-based; settings: 24 h
Method: as §1, with “For this purpose, initial inoculums of bacteria (0.5 × 10^5 colony forming unit (CFU)/mL) in Mueller–Hinton Broth were exposed to the ranging concentrations of compounds (0.5–256 µg/mL) and incubated for 18 h at 37 °C.” left out, “The MICs were taken as the lowest drug concentration at which a visible growth of microorganisms was inhibited. All experiments were conducted in triplicate and included positive (growth) and negative (sterility) controls.” left out

[18] = system: reference strains of S. aureus; type: cell-based, Staphylococcus aureus; settings: reference strains of, 24 h
Method: as §1, with “For this purpose, initial inoculums of bacteria (0.5 × 10^5 colony forming unit (CFU)/mL) in Mueller–Hinton Broth were exposed to the ranging concentrations of compounds (0.5–256 µg/mL) and incubated for 18 h at 37 °C.” left out

[19] = system: biofilm of S. aureus strains; test: MBEC over reference strains of S. aureus; type: cell-based, Staphylococcus aureus
Method: as §2

SMILES | MIC [1] | MIC [2] | MIC [3] | MIC [4] | MIC [5] | MIC [6] | MIC [7] | MIC [8] | MIC [9] | MIC [10] | MBEC [11] | MBEC [12] | MBEC [13] | MBEC [14] | MBEC [15] | IC50 [16] | MIC range [17] | GM (geometric mean of the MIC values against S. aureus) [18] | MBEC range [19]
CC[C@H](C)[C@H](NC(=O)[C@H](CCCNC(=N)N)NC(=O)[C@H](CCC(N)=O)NC(=O)[C@@H](NC(=O)[C@@H](NC(=O)[C@H](CCCNC(=N)N)NC(=O)[C@H](CCCCN)NC(=O)/C=C/c1ccccc1)[C@@H](C)CC)C(C)C)C(=O)N[C@@H](CCCCN)C(=O)N[C@@H](CC(=O)O)C(=O)N[C@@H](Cc1ccccc1)C(=O)N[C@@H](CC(C)C)C(=O)N[C@@H](CCCNC(=N)N)C(N)=O [IX, trans-Cinnamic acid-KR12-NH2] (X1-KRIVQRIKDFLR-NH2) | 1 µg/mL (≈ 0.588 µM) | 4 µg/mL (≈ 2.35 µM) | 4 µg/mL (≈ 2.35 µM) | 4 µg/mL (≈ 2.35 µM) | 4 µg/mL (≈ 2.35 µM) | 4 µg/mL (≈ 2.35 µM) | 8 µg/mL (≈ 4.7 µM) | 4 µg/mL (≈ 2.35 µM) | 2 µg/mL (≈ 1.18 µM) | 4 µg/mL (≈ 2.35 µM) | 4 µg/mL | 32 µg/mL | 16 µg/mL | 8 µg/mL | 8 µg/mL | 10.00 µg/mL (≈ 5.88 µM) | 1 to 8 µg/mL | 4.00 µg/mL | 
CCCCCCCC(=O)N[C@@H](CCCCN)C(=O)N[C@@H](CCCNC(=N)N)C(=O)N[C@H](C(=O)N[C@H](C(=O)N[C@@H](CCC(N)=O)C(=O)N[C@@H](CCCNC(=N)N)C(=O)N[C@H](C(=O)N[C@@H](CCCCN)C(=O)N[C@@H](CC(=O)O)C(=O)N[C@@H](Cc1ccccc1)C(=O)N[C@@H](CC(C)C)C(=O)N[C@@H](CCCNC(=N)N)C(N)=O)[C@@H](C)CC)C(C)C)[C@@H](C)CC [IV, C8-KR12-NH2] (Octanoyl-KRIVQRIKDFLR-NH2) | 1 µg/mL (≈ 0.589 µM) | 2 µg/mL (≈ 1.18 µM) | 2 µg/mL (≈ 1.18 µM) | 2 µg/mL (≈ 1.18 µM) | 2 µg/mL (≈ 1.18 µM) | 4 µg/mL (≈ 2.36 µM) | 2 µg/mL (≈ 1.18 µM) | 2 µg/mL (≈ 1.18 µM) | 2 µg/mL (≈ 1.18 µM) | 2 µg/mL (≈ 1.18 µM) | 4 µg/mL | 8 µg/mL | 4 µg/mL | 16 µg/mL | 4 µg/mL | 3.23 µg/mL (≈ 1.9 µM) | 1 to 4 µg/mL | 2.30 µg/mL | 4 to 16 µg/mL
CCCC(=O)N[C@@H](CCCCN)C(=O)N[C@@H](CCCNC(=N)N)C(=O)N[C@H](C(=O)N[C@H](C(=O)N[C@@H](CCC(N)=O)C(=O)N[C@@H](CCCNC(=N)N)C(=O)N[C@H](C(=O)N[C@@H](CCCCN)C(=O)N[C@@H](CC(=O)O)C(=O)N[C@@H](Cc1ccccc1)C(=O)N[C@@H](CC(C)C)C(=O)N[C@@H](CCCNC(=N)N)C(N)=O)[C@@H](C)CC)C(C)C)[C@@H](C)CC [II, C4-KR12-NH2] (Butyryl-KRIVQRIKDFLR-NH2) | 4 µg/mL (≈ 2.44 µM) | 128 µg/mL (≈ 78 µM) | >256 µg/mL | 32 µg/mL (≈ 19.5 µM) | 128 µg/mL (≈ 78 µM) | 64 µg/mL (≈ 39 µM) | 128 µg/mL (≈ 78 µM) | 128 µg/mL (≈ 78 µM) | 32 µg/mL (≈ 19.5 µM) | 64 µg/mL (≈ 39 µM) | 128 µg/mL | 256 µg/mL | 128 µg/mL | 128 µg/mL | 128 µg/mL | 38.73 µg/mL (≈ 23.6 µM) |  | 73.52 µg/mL | 
CCCCCC(=O)N[C@@H](CCCCN)C(=O)N[C@@H](CCCNC(=N)N)C(=O)N[C@H](C(=O)N[C@H](C(=O)N[C@@H](CCC(N)=O)C(=O)N[C@@H](CCCNC(=N)N)C(=O)N[C@H](C(=O)N[C@@H](CCCCN)C(=O)N[C@@H](CC(=O)O)C(=O)N[C@@H](Cc1ccccc1)C(=O)N[C@@H](CC(C)C)C(=O)N[C@@H](CCCNC(=N)N)C(N)=O)[C@@H](C)CC)C(C)C)[C@@H](C)CC [III, C6-KR12-NH2] (Hexanoyl-KRIVQRIKDFLR-NH2) | 2 µg/mL (≈ 1.2 µM) | 16 µg/mL (≈ 9.59 µM) | 16 µg/mL (≈ 9.59 µM) | 8 µg/mL (≈ 4.79 µM) | 16 µg/mL (≈ 9.59 µM) | 8 µg/mL (≈ 4.79 µM) | 16 µg/mL (≈ 9.59 µM) | 16 µg/mL (≈ 9.59 µM) | 4 µg/mL (≈ 2.4 µM) | 8 µg/mL (≈ 4.79 µM) | 16 µg/mL | 32 µg/mL | 16 µg/mL | 16 µg/mL | 16 µg/mL | 10.13 µg/mL (≈ 6.07 µM) |  | 9.19 µg/mL | 
